Columns and labels:
[1] = Antiproliferative activity of compound was evaluated on SupT1 cells from human non-Hodgkin lymphoma; assay type: functional; conditions: SUP-T1, read-out: ID50 (the source's name)
[2] = Antiproliferative activity of compound was evaluated on Molt3 cells from human lymphoblastic leukemia; assay type: functional; conditions: MOLT-3, read-out: ID50 (the source's name)
MCF7 = assay: Antiproliferative activity of compound was evaluated on MCF-7 cells from human breast adenocarcinoma; assay type: functional; conditions: read-out: ID50 (the source's name)
Vero [3] = assay: The compound was evaluated for cytotoxicity against VERO cells using Lowry's test at a concentration 90 uM; assay type: cell-based; conditions: chlorocebus sabaeus
Vero [4] = assay: The compound was evaluated for cytotoxicity against VERO cells using Lowry's test at a concentration 11.2 uM; assay type: cell-based; conditions: chlorocebus sabaeus
Vero [5] = assay: The compound was evaluated for cytotoxicity against VERO cells using Lowry's test at a concentration 0.7 uM; assay type: cell-based; conditions: chlorocebus sabaeus
[6] = The compound was evaluated for cytotoxicity against VERO cells using Dye test at a concentration 90 uM; assay type: cell-based; conditions: chlorocebus sabaeus, read-out: Cellular growth
[7] = The compound was evaluated for cytotoxicity against VERO cells using Dye test at a concentration 0.7 uM; assay type: cell-based; conditions: chlorocebus sabaeus, read-out: Cellular growth
[8] = The compound was evaluated for cytotoxicity against VERO cells using Dye test at a concentration 11.2 uM; assay type: cell-based; conditions: chlorocebus sabaeus, read-out: Cellular growth

Row | Compound | IC50 (MCF7) [µM] | IC50 [1] [µM] | IC50 [2] [µM] | Protein content (Vero [3]) [%] | Protein content (Vero [4]) [%] | Protein content (Vero [5]) [%] | viability at 90 µM [6] [%] | viability at 0.7 µM [7] [%] | viability at 11.2 µM [8] [%]
1 | CSc1nc2c([nH]1)C(=O)C=C(Br)C2=O | 62.8 | 5.03 | 32.1 | – | – | – | – | – | –
2 | O=C1C(Br)=CC(=O)c2[nH]c(-c3ccccn3)nc21 | > 90 | 5.57 | 7.52 | – | – | – | – | – | –
3 | CSc1nc2c([nH]1)C(=O)/C(=N/CCCl)C=C2O | > 90 | 15.3 | 30.6 | – | – | – | – | – | –
4 | CSc1nc2c([nH]1)C(=O)C(Br)=C(Br)C2=O | 40.3 | 6.26 | 12 | – | – | – | – | – | –
5 | CSc1nc2c([nH]1)C(=O)C=CC2=O | 62.6 | 2.87 | 1.32 | 68.9 | 86.4 | 102.9 | 73.6 | 99.3 | 101
6 | COC1=CC(=O)c2[nH]c(SC)nc2C1=O | 36 | 5.07 | 20.8 | – | – | – | – | – | –
7 | CO[C@@]12[C@H](COC(N)=O)C3=C(C(=O)C(C)=C(N)C3=O)N1C[C@@H]1N[C@@H]12 [MITOMYCIN] | 42.9 | < 0.7 | 2.66 | – | – | – | – | – | –

Second part, led by results:

Row | IC50 (MCF7) [µM] | Compound | IC50 [1] [µM] | IC50 [2] [µM] | Protein content (Vero [3]) [%] | Protein content (Vero [4]) [%] | Protein content (Vero [5]) [%] | viability at 90 µM [6] [%] | viability at 0.7 µM [7] [%] | viability at 11.2 µM [8] [%]
8 | > 90 | CSc1nc2c([nH]1)C(=O)C(=N)C=C2O | 10.8 | 60.4 | – | – | – | – | – | –
9 | > 90 | CSc1nc2c([nH]1)C(=O)C=C(N(C)C)C2=O | 38 | 18.3 | – | – | – | – | – | –
10 | 26.4 | COC1=CC(=O)c2[nH]c(-c3ccccn3)nc2C1=O | 2.57 | 2.63 | 16.2 | 81.3 | 97.2 | 16.4 | 114 | 71.2
11 | > 90 | CN(C)C1=CC(=O)c2[nH]c(-c3ccccn3)nc2C1=O | 17.4 | 22.4 | – | – | – | – | – | –
12 | > 90 | NC1=CC(=O)c2[nH]c(-c3ccccn3)nc2C1=O | 29.3 | 39.7 | – | – | – | – | – | –

From ChEMBL document CHEMBL1132744, “Synthesis and antiproliferative activity of some benzimidazole-4,7-dione derivatives” (Bioorg Med Chem Lett, 2000)
